Common to all, as to assay: NCI one-dose assay
One assay relates to HOP-62. In kind it is cell-based. The following applies: Homo sapiens, HOP-62, Non-small cell lung cancer, read-out: Cell growth inhibition %.
The next assay relates to HT29. The class given is cell-based. The note with it: Homo sapiens, HT-29, HT29, Colon cancer, read-out: Cell growth inhibition %.
Another assay relates to LOX IMVI. In kind it is cell-based. The note with it: Homo sapiens, Melanoma, read-out: Cell growth inhibition %.
In another assay the test system is M14. In kind it is cell-based. The following applies: Homo sapiens, M14, Melanoma, read-out: Cell growth inhibition %.
Another assay concerns MCF7. The class given is cell-based. The note with it: Homo sapiens, MCF7, Breast cancer, read-out: Cell growth inhibition %.
Another assay has as its system MDA-MB-435. The class given is cell-based. The following applies: Homo sapiens, MDA-MB-435, Melanoma, read-out: Cell growth inhibition %.
For another assay, the system named is MDA-MB-468. The class given is cell-based. The note with it: Homo sapiens, MDA-MB-468, Breast cancer, read-out: Cell growth inhibition %.
For the next assay, the system named is NCI-H322M. In kind it is cell-based. The note with it: Homo sapiens, Non-small cell lung cancer, read-out: Cell growth inhibition %.
The next assay relates to OVCAR-4. The class given is cell-based. The note with it: Homo sapiens, OVCAR-4, Ovarian cancer, read-out: Cell growth inhibition %.
A further assay concerns OVCAR-8. In kind it is cell-based. The note with it: Homo sapiens, OVCAR-8, Ovarian cancer, read-out: Cell growth inhibition %.
In a further assay the test system is SF-268. In kind it is cell-based. The following applies: Homo sapiens, SF-268, CNS cancer, read-out: Cell growth inhibition %.
For another assay, the system named is SK-MEL-2. The class given is cell-based. The following applies: Homo sapiens, SK-MEL-2, Melanoma, read-out: Cell growth inhibition %.
The test system of the next assay is SK-MEL-5. In kind it is cell-based. The note with it: Homo sapiens, SK-MEL-5, Melanoma, read-out: Cell growth inhibition %.
The next assay concerns SNB-19. In kind it is cell-based. The note with it: Homo sapiens, SNB-19, CNS cancer, read-out: Cell growth inhibition %.
The next assay has as its system SNB-75. The class given is cell-based. The note with it: Homo sapiens, SNB-75, CNS cancer, read-out: Cell growth inhibition %.
The next assay concerns SW-620. The class given is cell-based. The note with it: Homo sapiens, SW-620, Colon cancer, read-out: Cell growth inhibition %.
A further assay deals with T-47D. In kind it is cell-based. The note with it: Homo sapiens, T47D, Breast cancer, read-out: Cell growth inhibition %.
Another assay relates to TK-10. In kind it is cell-based. The note with it: Homo sapiens, TK-10, Renal cancer, read-out: Cell growth inhibition %.
Another assay concerns 786-0. The class given is cell-based, human. The following applies: Homo sapiens, 786-0, 786-0, Renal cancer, read-out: Cell growth inhibition %. The procedure: (§1) The National Cancer Institute (NCI), Bethesda, USA, selected the final compounds 6a–j and 7a–j for in vitro anticancer screening. An initial in vitro single-dose anticancer experiment was performed with the entire NCI 60 cell lines derived from nine tumor subpanel cancer cell lines. The results for each compound were illustrated as a mean graph showing the percentage growth of treated cells compared to untreated control cells (see Supplementary Materials).
(§2) The NCI anticancer screening process has been thoroughly detailed. The Drug Evaluation Branch of the National Cancer Institute in Bethesda, […], USA, established the procedure and conducted the anticancer assay on 60 human tumor cell lines from nine neoplastic cancers.

A further assay relates to A498. In kind it is cell-based, human. The note with it: Homo sapiens, A498, A498, Renal cancer, read-out: Cell growth inhibition %. As for the experimental part: as §1, §2
In a further assay the test system is HOP-92. The class given is cell-based, human. The following applies: Homo sapiens, HOP-92, HOP-92, Non-small cell lung cancer, read-out: Cell growth inhibition %. The procedure: as §1, §2
The next assay deals with UO-31. In kind it is cell-based, human. The following applies: Homo sapiens, UO-31, UO-31, Renal cancer, read-out: Cell growth inhibition %. The procedure:
as §1, §2

SMILES strings stand for the structures.

One may read the inhibition as the relative decrease from the control value, in per cent. For `COc1ccc(C(=O)CSc2nnc(-c3c[nH]c4ccccc34)n2-c2ccccc2)cc1` [Compound 6g, 2-((5-(1H-Indol-3-yl)-4-phenyl-4H-1,2,4-triazol-3-yl)thio)-1-(4-methoxyphenyl) Ethenone], the inhibition at 10 µM with HOP-62 turned out to be 91.2%; in the assay with HT29, 16.9%; in the assay on LOX IMVI, 56.5%; with M14, 24.3%; with MCF7, 54.4%; with MDA-MB-435 it was 30.9%. For the same molecule, the inhibition at 10 µM in the assay with MDA-MB-468 was determined as 40.2%; in the assay with NCI-H322M, 41.6%; with OVCAR-4, 99.4%; with OVCAR-8, 84.5%; in the assay with SF-268 it was 59%; with SK-MEL-2 it was 28%. The inhibition at 10 µM was found to be 18.6% in the assay on SK-MEL-5; 70.2% in the assay with SNB-19; 85% in the assay on SNB-75; 13.7% in the assay on SW-620; 43.3% in the assay with T-47D; 36.1% in the assay with TK-10. The inhibition at 10 µM in the assay on 786-0 is 54.8%; in the assay on A498 it was -11.3%; in the assay with HOP-92 it was 92.1%; in the assay on UO-31, 67.4%.
Consider `O=C(CSc1nnc(-c2c[nH]c3ccccc23)n1-c1ccccc1)c1ccc(Br)cc1` [Compound 6i, 2-((5-(1H-Indol-3-yl)-4-phenyl-4H-1,2,4-triazol-3-yl)thio)-1-(4-bromophenyl) Ethenone], for which the inhibition at 10 µM in the assay on HOP-62 was 26.4%; in the assay on HT29, 42.6%; in the assay on LOX IMVI it was 58.2%; in the assay with M14, 49%; in the assay with MCF7 it was 46.6%; in the assay with MDA-MB-435, 59.1%. In addition, the inhibition at 10 µM came to 78% in the assay with MDA-MB-468; 54.3% in the assay on NCI-H322M; 53.8% in the assay on OVCAR-4; 56.5% in the assay on OVCAR-8; 50.9% in the assay on SF-268; 119% with SK-MEL-2. For the same molecule, the inhibition at 10 µM came to 82.8% in the assay on SK-MEL-5; 29.8% with SNB-19; 61.2% in the assay with SNB-75; 20.2% with SW-620; 78% with T-47D; 35.1% with TK-10. Besides, the inhibition at 10 µM in the assay on 786-0 stood at 17.6%; in the assay with A498, 64%; in the assay with HOP-92 it was 71.9%; in the assay on UO-31, 74%.
Take `O=C(CSc1nnc(-c2c[nH]c3ccccc23)n1-c1ccccc1)c1ccc(Cl)cc1` [Compound 6j, 2-((5-(1H-indol-3-yl)-4-phenyl-4H-1,2,4-triazol-3-yl)thio)-1-(4-chlorophenyl) Ethenone]: the inhibition at 10 µM is 53% in the assay with HOP-62; 57.4% with HT29; 84.1% in the assay with LOX IMVI; 19.4% in the assay with M14; 61.6% in the assay on MCF7; 20.8% in the assay on MDA-MB-435. Besides, the inhibition at 10 µM was found to be 53.6% in the assay with MDA-MB-468; 41.3% in the assay with NCI-H322M; 85.1% in the assay with OVCAR-4; 75.5% in the assay on OVCAR-8; 30.6% in the assay with SF-268; 66.3% with SK-MEL-2. The inhibition at 10 µM came out at 21.8% in the assay with SK-MEL-5; 60% in the assay with SNB-19; 45.3% with SNB-75; 29.7% with SW-620; 45.4% with T-47D; 16% in the assay with TK-10. The inhibition at 10 µM was found to be 55.1% with 786-0, 42.7% with A498, 35% in the assay on HOP-92 and 45.2% in the assay with UO-31.
Take `O/N=C(\CSc1nnc(-c2c[nH]c3ccccc23)n1-c1ccccc1)c1ccccc1` [Compound 7f, (Z)-2-((5-(1H-Indol-3-yl)-4-phenyl-4H-1,2,4-triazol-3-yl)thio)-1-phenylethanone Oxime]: the inhibition at 10 µM is 15.4% with HOP-62; 50.7% with HT29; 59% with LOX IMVI; 54.2% in the assay on M14; 58.9% in the assay on MCF7; 54.9% in the assay on MDA-MB-435. The inhibition at 10 µM stood at 64.6% with MDA-MB-468; 35% in the assay on NCI-H322M; 62.2% with OVCAR-4; 43.2% in the assay on OVCAR-8; 23.1% in the assay with SF-268; 50.8% with SK-MEL-2. Moreover, the inhibition at 10 µM in the assay on SK-MEL-5 came out at 84.1%; with SNB-19, 48.5%; in the assay with SNB-75, 23.8%; in the assay on SW-620, 47.2%; in the assay with T-47D it was 80.2%; in the assay on TK-10, 34%. The inhibition at 10 µM was 17.9% with 786-0, 14.8% in the assay with A498, 82.7% in the assay on HOP-92 and 71.6% in the assay with UO-31.
As to `COc1ccc(/C(CSc2nnc(-c3c[nH]c4ccccc34)n2-c2ccccc2)=N/O)cc1` [Compound 7g, (Z)-2-((5-(1H-Indol-3-yl)-4-phenyl-4H-1,2,4-triazol-3-yl)thio)-1-(4-methoxyphenyl) Ethanone Oxime], the inhibition at 10 µM in the assay with HOP-62 turned out to be 55%; in the assay with HT29, 68%; in the assay with LOX IMVI, 178%; in the assay on M14, 71.1%; in the assay on MCF7, 85.5%; with MDA-MB-435 it was 105%. The inhibition at 10 µM turned out to be 99.4% in the assay on MDA-MB-468; 63.6% in the assay on NCI-H322M; 83.2% in the assay on OVCAR-4; 70.3% with OVCAR-8; 51.5% in the assay on SF-268; 94.1% in the assay with SK-MEL-2. Further, the inhibition at 10 µM with SK-MEL-5 was found to be 110%; with SNB-19 it was 59.7%; with SNB-75 it was 36.7%; in the assay on SW-620, 60.6%; with T-47D, 89.7%; in the assay on TK-10, 57.4%. Also, the inhibition at 10 µM in the assay on 786-0 was 40.3%; with A498, 30.2%; with HOP-92 it was 71.8%; with UO-31, 81.8%.
